In patent publication US20240043404A1 (AbbVie Inc., priority 2009, published 2024):
pEC50: −log10 of the molar value.

System: RS4;11 cells
Experiment: RS4;11 cell viability assay (CellTiter Glo);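 further: acute lymphoblastic leukemia line RS4,11, EC50 derived from percentage of viable cells after treatment relative to untreated controls, cell killing taken as a measure of Bcl-2 inhibition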
Type: cell-based, human
Details: Homo sapiens, RS4-11, 48 h, 50,000 cells per well, 10% human serum, 48 hours; read-out: RS4; 11 EC50 Values
Experimental: The acute lymphoblastic leukemia (ALL) cell line RS4;11 was used as the primary human cell line to assess the cellular activity of Bcl-2 selective agents in vitro and their efficacy in vivo.
Cell cytotoxicity EC50 values were assessed using CellTiter Glo (Promega) according to the manufacturer's recommendations. The EC50 values were determined as a percentage of viable cells following treatment compared to the untreated control cells.

Structure (SMILES)	pEC50
CC1(C)CCC(CN2CCN(c3ccc(C(=O)NS(=O)(=O)c4ccc(NCC5CCOCC5)c(C#N)c4)c(Oc4cnc5[nH]ccc5c4)c3)CC2)=C(c2ccc(Cl)cc2)C1 [Example 110, 4-(4-{[2-(4-chlorophenyl)-4,4-dimethylcyclohex-1-en-1-yl]methyl}piperazin-1-yl)-N-({3-cyano-4-[(tetrahydro-2H-pyran-4-ylmethyl)amino]phenyl}sulfonyl)-2-(1H-pyrrolo[2,3-b]pyridin-5-yloxy)benzamide]	6.27
CC1(C)CCC(CN2CCN(c3ccc(C(=O)NS(=O)(=O)c4ccc(N[C@H]5CC[C@@H](N6CCOCC6)C5)c([N+](=O)[O-])c4)c(Oc4cnc5[nH]ccc5c4)c3)CC2)=C(c2ccc(Cl)cc2)C1 [Example 111, 4-(4-{[2-(4-chlorophenyl)-4,4-dimethylcyclohex-1-en-1-yl]methyl}piperazin-1-yl)-N-[(4-{[(1S,3R)-3-morpholin-4-ylcyclopentyl]amino)-3-nitrophenyl)sulfonyl]-2-(1H-pyrrolo[2,3-b]pyridin-5-yloxy)benzamide]	7.84
CC1(C)CCC(CN2CCN(c3ccc(C(=O)NS(=O)(=O)c4ccc(N[C@@H]5CC[C@H](N6CCOCC6)C5)c([N+](=O)[O-])c4)c(Oc4cnc5[nH]ccc5c4)c3)CC2)=C(c2ccc(Cl)cc2)C1 [Example 112, 4-(4-{[2-(4-chlorophenyl)-4,4-dimethylcyclohex-1-en-1-yl]methyl}piperazin-1-yl)-N-[(4-{[(1R,3S)-3-morpholin-4-ylcyclopentyl]amino}-3-nitrophenyl)sulfonyl]-2-(1H-pyrrolo[2,3-b]pyridin-5-yloxy)benzamide]	7.69
CC1(C)CCC(CN2CCN(c3ccc(C(=O)NS(=O)(=O)c4ccc(NC[C@H]5CCN(C6CCOCC6)C5)c([N+](=O)[O-])c4)c(Oc4cnc5[nH]ccc5c4)c3)CC2)=C(c2ccc(Cl)cc2)C1 [Example 118, 4-(4-{[2-(4-chlorophenyl)-4,4-dimethylcyclohex-1-en-1-yl]methyl}piperazin-1-yl)-N-{[3-nitro-4-({[(3R)-1-tetrahydro-2H-pyran-4-ylpyrrolidin-3-yl]methyl}amino)phenyl]sulfonyl}-2-(1H-pyrrolo[2,3-b]pyridin-5-yloxy)benzamide]	7.89
CC1(C)CCC(CN2CCN(c3ccc(C(=O)NS(=O)(=O)c4ccc(N[C@H]5CC[C@@H](NC6CC6)CC5)c([N+](=O)[O-])c4)c(Oc4cnc5[nH]ccc5c4)c3)CC2)=C(c2ccc(Cl)cc2)C1 [Example 122, Cis-4-(4-{[2-(4-chlorophenyl)-4,4-dimethylcyclohex-1-en-1-yl]methyl}piperazin-1-yl)-N-[(4-{[4-(cyclopropylamino)cyclohexyl]amino}-3-nitrophenyl)sulfonyl]-2-(1H-pyrrolo[2,3-b]pyridin-5-yloxy)benzamide]	8.73
CC1(C)CCC(CN2CCN(c3ccc(C(=O)NS(=O)(=O)c4ccc(N[C@H]5CC[C@H](NC6CCOCC6)CC5)c([N+](=O)[O-])c4)c(Oc4cnc5[nH]ccc5c4)c3)CC2)=C(c2ccc(Cl)cc2)C1 [Example 123, Trans-4-(4-{[2-(4-chlorophenyl)-4,4-dimethylcyclohex-1-en-1-yl]methyl}piperazin-1-yl)-N-[(3-nitro-4-{[4-(tetrahydro-2H-pyran-4-ylamino)cyclohexyl]amino}phenyl)sulfonyl]-2-(1H-pyrrolo[2,3-b]pyridin-5-yloxy)benzamide]	8.48
CC1(C)CCC(CN2CCN(c3ccc(C(=O)NS(=O)(=O)c4cnc(O[C@H]5CC[C@H](N6CCOCC6)CC5)c(Br)c4)c(Oc4cnc5[nH]ccc5c4)c3)CC2)=C(c2ccc(Cl)cc2)C1 [Example 124, Trans-N-({5-bromo-6-[(4-morpholin-4-ylcyclohexyl)oxy]pyridin-3-yl}sulfonyl)-4-(4-{[2-(4-chlorophenyl)-4,4-dimethylcyclohex-1-en-1-yl]methyl}piperazin-1-yl)-2-(1H-pyrrolo[2,3-b]pyridin-5-yloxy)benzamide]	6.67
CC1(C)CCC(CN2CCN(c3ccc(C(=O)NS(=O)(=O)c4ccc(N[C@H]5CC[C@H](N6CCN(C7CCOCC7)CC6)CC5)c([N+](=O)[O-])c4)c(Oc4cnc5[nH]ccc5c4)c3)CC2)=C(c2ccc(Cl)cc2)C1 [Example 128, Trans-4-(4-{[2-(4-chlorophenyl)-4,4-dimethylcyclohex-1-en-1-yl]methyl}piperazin-1-yl)-N-[(3-nitro-4-{[4-(4-tetrahydro-2H-pyran-4-ylpiperazin-1-yl)cyclohexyl]amino}phenyl)sulfonyl]-2-(1H-pyrrolo[2,3-b]pyridin-5-yloxy)benzamide]	8.23

Continued, values first:

pEC50	Structure (SMILES)
8.87	CC1(C)CCC(CN2CCN(c3ccc(C(=O)NS(=O)(=O)c4ccc(NCC5CNCCO5)c([N+](=O)[O-])c4)c(Oc4cnc5[nH]ccc5c4)c3)CC2)=C(c2ccc(Cl)cc2)C1 (stereo not drawn) [Example 113, 4-(4-{[2-(4-chlorophenyl)-4,4-dimethylcyclohex-1-en-1-yl]methyl}piperazin-1-yl)-N-({4-[(morpholin-2-ylmethyl)amino]-3-nitrophenyl}sulfonyl)-2-(1H-pyrrolo[2,3-b]pyridin-5-yloxy)benzamide]
7.97	CC1(C)CCC(CN2CCN(c3ccc(C(=O)NS(=O)(=O)c4ccc(NCC5CCOC5)c([N+](=O)[O-])c4)c(Oc4cnc5[nH]ccc5c4)c3)CC2)=C(c2ccc(Cl)cc2)C1 (stereo not drawn) [Example 114, 4-(4-{[2-(4-chlorophenyl)-4,4-dimethylcyclohex-1-en-1-yl]methyl}piperazin-1-yl)-N-({3-nitro-4-[(tetrahydrofuran-3-ylmethyl)amino]phenyl}sulfonyl)-2-(1H-pyrrolo[2,3-b]pyridin-5-yloxy)benzamide]
7.54	CC1(C)CCC(CN2CCN(c3ccc(C(=O)NS(=O)(=O)c4ccc(NC5CN(C6CCOCC6)C5)c([N+](=O)[O-])c4)c(Oc4cnc5[nH]ccc5c4)c3)CC2)=C(c2ccc(Cl)cc2)C1 [Example 116, 4-(4-{[2-(4-chlorophenyl)-4,4-dimethylcyclohex-1-en-1-yl]methyl}piperazin-1-yl)-N-({3-nitro-4-[(1-tetrahydro-2H-pyran-4-ylazetidin-3-yl)amino]phenyl}sulfonyl)-2-(1H-pyrrolo[2,3-b]pyridin-5-yloxy)benzamide]
7.74	CC1(C)CCC(CN2CCN(c3ccc(C(=O)NS(=O)(=O)c4ccc(NC5CN(C6CCOC6)C5)c([N+](=O)[O-])c4)c(Oc4cnc5[nH]ccc5c4)c3)CC2)=C(c2ccc(Cl)cc2)C1 (stereo not drawn) [Example 117, 4-(4-{[2-(4-chlorophenyl)-4,4-dimethylcyclohex-1-en-1-yl]methyl}piperazin-1-yl)-N-({3-nitro-4-[(1-tetrahydrofuran-3-ylazetidin-3-yl)amino]phenyl}sulfonyl)-2-(1H-pyrrolo[2,3-b]pyridin-5-yloxy)benzamide]
7.94	CC1(C)CCC(c2ccc(Cl)cc2)=C(CN2CCN(c3ccc(C(=O)NS(=O)(=O)c4ccc(OCC5(F)CCOCC5)c([N+](=O)[O-])c4)c(Oc4cnc5[nH]ccc5c4)c3)CC2)C1 [Example 119, 4-(4-{[2-(4-chlorophenyl)-5,5-dimethylcyclohex-1-en-1-yl]methyl}piperazin-1-yl)-N-({4-[(4-fluorotetrahydro-2H-pyran-4-yl)methoxy]-3-nitrophenyl}sulfonyl)-2-(1H-pyrrolo[2,3-b]pyridin-5-yloxy)benzamide]
7.22	CO[C@H]1CC[C@@H](COc2ccc(S(=O)(=O)NC(=O)c3ccc(N4CCN(CC5=C(c6ccc(Cl)cc6)CC(C)(C)CC5)CC4)cc3Oc3cnc4[nH]ccc4c3)cc2[N+](=O)[O-])CC1 [Example 121, 2-(1H-pyrrolo[2,3-b]pyridin-5-yloxy)-4-(4-((2-(4-chlorophenyl)-4,4-dimethylcyclohex-1-enyl)methyl)piperazin-1-yl)-N-(4-((cis-4-methoxycyclohexyl)methoxy)-3-nitrophenylsulfonyl)benzamide]
8.08	CO[C@H]1CC[C@H](COc2ccc(S(=O)(=O)NC(=O)c3ccc(N4CCN(CC5=C(c6ccc(Cl)cc6)CC(C)(C)CC5)CC4)cc3Oc3cnc4[nH]ccc4c3)cc2[N+](=O)[O-])CC1 [Example 125, Trans-4-(4-{[2-(4-chlorophenyl)-4,4-dimethylcyclohex-1-en-1-yl]methyl}piperazin-1-yl)-N-({4-[(4-methoxycyclohexyl)methoxy]-3-nitrophenyl}sulfonyl)-2-(1H-pyrrolo[2,3-b]pyridin-5-yloxy)benzamide]
7.27	CC1(C)CCC(CN2CCN(c3ccc(C(=O)NS(=O)(=O)c4ccc(OCC5(F)CCN(C(=O)OC(C)(C)C)CC5)c([N+](=O)[O-])c4)c(Oc4cnc5[nH]ccc5c4)c3)CC2)=C(c2ccc(Cl)cc2)C1 [Example 126, tert-butyl 4-{[4-({[4-(4-{[2-(4-chlorophenyl)-4,4-dimethylcyclohex-1-en-1-yl]methyl}piperazin-1-yl)-2-(1H-pyrrolo[2,3-b]pyridin-5-yloxy)benzoyl]amino}sulfonyl)-2-nitrophenoxy]methyl}-4-fluoropiperidine-1-carboxylate]
8.01	CC1(C)CCC(CN2CCN(c3ccc(C(=O)NS(=O)(=O)c4ccc(OCC5(F)CCNCC5)c([N+](=O)[O-])c4)c(Oc4cnc5[nH]ccc5c4)c3)CC2)=C(c2ccc(Cl)cc2)C1 [Example 127, 4-(4-{[2-(4-chlorophenyl)-4,4-dimethylcyclohex-1-en-1-yl]methyl}piperazin-1-yl)-N-({4-[(4-fluoropiperidin-4-yl)methoxy]-3-nitrophenyl}sulfonyl)-2-(1H-pyrrolo[2,3-b]pyridin-5-yloxy)benzamide]
7.83	CC1(C)CCC(CN2CCN(c3ccc(C(=O)NS(=O)(=O)c4ccc(OCC5CCN(C(CF)CF)CC5)c([N+](=O)[O-])c4)c(Oc4cnc5[nH]ccc5c4)c3)CC2)=C(c2ccc(Cl)cc2)C1 [Example 129, 4-(4-{[2-(4-chlorophenyl)-4,4-dimethylcyclohex-1-en-1-yl]methyl}piperazin-1-yl)-N-{[4-({1-[2-fluoro-1-(fluoromethyl)ethyl]piperidin-4-yl}methoxy)-3-nitrophenyl]sulfonyl}-2-(1H-pyrrolo[2,3-b]pyridin-5-yloxy)benzamide]
